In patent US20260008758A1, “LINEAR DIPEPTIDYL PEPTIDASE 1 INHIBITORS AND USES THEREOF” (Insmed Incorporated, priority 2024, published 2026):

Legend:
human DPP1 enzyme = human DPP1 enzyme (Homo sapiens (Human), UniProt P53634); assay: Human DPP1 enzyme single-point percent inhibition testing (HL-60 lysate, H-Gly-Arg-AMC substrate); type: biochemical; details: read-out: human DPP1 enzyme % inhibition @ 10 nM, 10 nM compound, 400 μM H-Gly-Arg-AMC, 10 min pre-incubation at 37° C.
Experimental: A crude lysate of HL-60 cells (ATCC; Manassas, VA) was used as a source of human DPP1 enzyme in the assay. Lysate was prepared in 1% Triton X-100 in PBS at a concentration of 20,000 live cells per […] of lysis buffer and was centrifuged at 16,000 rcf for 10 minutes at 4° C., after which supernatant was collected and flash-frozen in liquid nitrogen. Test articles were applied to human DPP1 enzyme in Assay Buffer (25 mM MES pH 6.0, 50 mM NaCl, 5 mM DTT) in a total reaction volume of 125 μL. 25 μL of compound diluted to 50 nM in Assay Buffer plus 5% DMSO was first added to 50 μL of HL-60 lysate diluted to contain a DPP1 enzyme concentration of roughly 1 ng/μL and allowed to pre-incubate for 10 minutes at 37° C. after which 50 μL of 1000 μM H-Gly-Arg-AMC substrate (Bachem; St. Torrance, CA) was added, giving final compound concentration of 10 nM, a final substrate concentration of 400 μM and a final DMSO concentration of 1%. Substrate cleavage was measured for 90 minutes at 37° C., with fluorescence at Excitation/Emission 350/450 nm measured every 5 minutes. DPP1 concentration was interpolated based on its activity relative to a standard curve of activated human recombinant DPP1 enzyme. Percent inhibition at 10 nM was calculated for each test article based on remaining DPP1 activity compared to enzyme activity in wells that received only vehicle control.

DPP1 in HL-60 cells = DPP1 in HL-60 cells (Homo sapiens (Human), UniProt P53634); assay: DPP1 cell single-point percent inhibition testing (HL-60 cells, H-Gly-Phe-AFC substrate); type: cell-based; details: read-out: DPP1 cell % inhibition @ 5 nM, 5 nM compound, 100 μM H-Gly-Phe-AFC, 60 min pre-incubation at 37° C.
Experimental: HL-60 cells (ATCC; Manassas, VA) were maintained in RPMI-1640 supplemented with 20% heat-inactivated FBS and 1× Antibiotic Antimycotic (Cytiva; Marlborough, MA). Media was changed every three to four days and cells were not allowed to exceed 1×10^6 cells per mL. Prior to assay, cells were collected by centrifugation at 500 rcf for 3 minutes, resuspended in RPMI (with no additional supplements) and counted. Cells were diluted in RPMI to a concentration of 5×10^5 live cells per mL and transferred to black 96-well plates for assay, 60 μL per well. Test articles were diluted to 25 nM in RPMI plus 0.5% DMSO, and 20 μL was added to each assay well. Compound was allowed to pre-incubate with cells with gentle shaking at 100 rpm for 60 minutes at 37° C. in a cell culture incubator maintained at 5% CO2, after which 20 μL of 500 μM H-Gly-Phe-AFC cell-permeable substrate (MP Biomedicals; Solon, OH) in RPMI was added to each well, giving final compound concentration of 5 nM, a final substrate concentration of 100 μM and a final DMSO concentration of 0.1%. Plates were returned to the incubator with shaking at 100 rpm for 30 minutes, after which fluorescence was measured at Excitation/Emission 400/505 nm. Percent Inhibition was calculated from RFU values by first subtracting background values (wells in which RPMI was substituted for cells) from each well, and then subtracting background-subtracted RFU derived from wells that received a final concentration of 10 μM brensocatib. This value represents the non-specific substrate cleavage from the HL-60 cells, and the remaining RFU should theoretically be solely the contribution of DPP1 enzyme activity. The final percent inhibition value was calculated for each test article based on remaining RFU compared to RFU from wells that received only vehicle control.

Chain of DPP1 in HL-60 cells (P53634 25-134): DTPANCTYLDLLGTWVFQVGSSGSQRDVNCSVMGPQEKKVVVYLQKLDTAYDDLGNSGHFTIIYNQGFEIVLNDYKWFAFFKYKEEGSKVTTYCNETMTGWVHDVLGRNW
Chain of DPP1 in HL-60 cells (P53634 231-394): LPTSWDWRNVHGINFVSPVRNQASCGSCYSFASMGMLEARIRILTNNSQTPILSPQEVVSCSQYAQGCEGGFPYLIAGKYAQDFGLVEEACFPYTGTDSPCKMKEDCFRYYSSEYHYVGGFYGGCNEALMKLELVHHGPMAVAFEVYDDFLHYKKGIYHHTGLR
Chain of DPP1 in HL-60 cells (P53634 395-463): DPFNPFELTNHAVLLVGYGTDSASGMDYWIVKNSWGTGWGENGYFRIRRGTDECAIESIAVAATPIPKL
Chain of human DPP1 enzyme (P53634 25-134): as the sequence (P53634 25-134) above
Chain of human DPP1 enzyme (P53634 231-394): as the sequence (P53634 231-394) above
Chain of human DPP1 enzyme (P53634 395-463): as the sequence (P53634 395-463) above

| inhibition at 0.01 µM (human DPP1 enzyme) [%] | inhibition at 0.005 µM (DPP1 in HL-60 cells) [%] | SMILES |
| --- | --- | --- |
| 40 to 66.7 | ≤ 76.5 | CN(C)C[C@H](O)C(=O)N[C@H](C#N)Cc1ccc(-c2ccc3c(c2)C2(CN(C)C2)OC3=O)cc1 [Compound 346] |
| ≤ 40 | ≤ 76.5 | CCN1C(=O)Cc2ccc(-c3ccc(C[C@@H](C#N)NC(=O)[C@@H](O)CN(C)C)cc3)cc21 [Compound 347] |
| 40 to 66.7 | ≤ 76.5 | CN(C)C[C@H](O)C(=O)N[C@H](C#N)Cc1ccc(-c2ccc3c(c2)C2(CCN(C)C2)OC3=O)cc1 (stereo partly drawn) [Compound 348] |
| 40 to 66.7 | ≤ 76.5 | CN(C)C[C@H](O)C(=O)N[C@H](C#N)Cc1ccc(-c2ccc3cnn(C4CCN(C)CC4)c3c2)cc1 [Compound 349] |
| ≤ 40 | ≤ 76.5 | CN(C)C[C@H](O)C(=O)N[C@H](C#N)Cc1ccc(-c2ccc3oc(=O)n(CCN4CCOCC4)c3c2)cc1 [Compound 351] |
| ≤ 40 | ≤ 76.5 | CN(C)C[C@H](O)C(=O)N[C@H](C#N)Cc1ccc(-c2ccc(CN3CCN(C)CC3)cc2)cc1 [Compound 352] |
| 40 to 66.7 | 76.5 to 93.9 | CN(C)C[C@H](O)C(=O)N[C@H](C#N)Cc1ccc(-c2ccc3oc(=O)n(C)c3c2)cc1 [Compound 353] |
| ≤ 40 | ≤ 76.5 | CN(C)C[C@H](O)C(=O)N[C@H](C#N)Cc1ccc(-c2ccc3c(n2)CCCN3)cc1 [Compound 354] |
| 40 to 66.7 | 76.5 to 93.9 | CN(C)C[C@H](O)C(=O)N[C@H](C#N)Cc1ccc(-c2ccc3c(c2)C2(CCCN(C)C2)C(=O)N3C)cc1F (stereo partly drawn) [Compound 356] |
| ≥ 66.7 | ≤ 76.5 | CN(C)CCn1c(=O)oc2ccc(-c3ccc(C[C@@H](C#N)NC(=O)[C@@H](O)CN(C)C)c(F)c3)cc21 [Compound 357] |
| ≤ 40 | ≤ 76.5 | Cc1cn2cc(-c3ccc(C[C@@H](C#N)NC(=O)[C@@H](O)CN(C)C)c(F)c3)cc2c(C)n1 [Compound 358] |
| 40 to 66.7 | ≤ 76.5 | CN(C)C[C@H](O)C(=O)N[C@H](C#N)Cc1ccc(-c2ccc3c(c2)C2(CN(C)C2)OC3=O)cc1F [Compound 359] |
| 40 to 66.7 | 76.5 to 93.9 | CCN1C(=O)Cc2ccc(-c3ccc(C[C@@H](C#N)NC(=O)[C@@H](O)CN(C)C)c(F)c3)cc21 [Compound 360] |
| 40 to 66.7 | ≤ 76.5 | CN(C)C[C@H](O)C(=O)N[C@H](C#N)Cc1ccc(-c2ccc3c(c2)C2(CCN(C)C2)OC3=O)cc1F (stereo partly drawn) [Compound 361] |
| ≥ 66.7 | ≤ 76.5 | CN(C)C[C@H](O)C(=O)N[C@H](C#N)Cc1ccc(-c2ccc3cnn(C4CCN(C)CC4)c3c2)cc1F [Compound 362] |
| 40 to 66.7 | ≤ 76.5 | CN(C)C[C@H](O)C(=O)N[C@H](C#N)Cc1ccc(-c2ccc3oc(=O)n(CCN4CCOCC4)c3c2)cc1F [Compound 364] |
| ≤ 40 | ≤ 76.5 | CN(C)C[C@H](O)C(=O)N[C@H](C#N)Cc1ccc(-c2ccc(CN3CCN(C)CC3)cc2)cc1F [Compound 365] |
| 40 to 66.7 | 76.5 to 93.9 | CN(C)C[C@H](O)C(=O)N[C@H](C#N)Cc1ccc(-c2ccc3oc(=O)n(C)c3c2)cc1F [Compound 366] |

| SMILES | inhibition at 0.01 µM (human DPP1 enzyme) [%] | inhibition at 0.005 µM (DPP1 in HL-60 cells) [%] |
| --- | --- | --- |
| CN(C)C[C@H](O)C(=O)N[C@H](C#N)Cc1ccc(-c2ccc3c(c2)C2(CCN(C4COC4)CC2)OC3)cc1 [Compound 350] | ≤ 40 | ≤ 76.5 |
| CN(C)C[C@H](O)C(=O)N[C@H](C#N)Cc1ccc(-c2ccc3c(c2)C2(CC3)CCN(C)CC2)cc1F [Compound 355] | ≥ 66.7 | ≤ 76.5 |
| CN(C)C[C@H](O)C(=O)N[C@H](C#N)Cc1ccc(-c2ccc3c(c2)C2(CCN(C4COC4)CC2)OC3)cc1F [Compound 363] | 40 to 66.7 | ≤ 76.5 |
